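Interpolation was linear, between the two tested concentrations surrounding the appropriate level; five concentrations were tested over 48 hours in 96-well plates. The concentration for full growth arrest is given as TGI.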
Legend:
Test in all cases: NCI-60 cell line screen, 48 h
MALME-3M melanoma = system: MALME-3M melanoma
KM20L2 colon = system: KM20L2 colon
NCI-H226 lung = system: NCI-H226 lung
HOP-18 NSCLC = system: HOP-18 NSCLC
SK-MEL-5 melanoma = system: SK-MEL-5 melanoma
M19-MEL melanoma = system: M19-MEL melanoma
OVCAR-8 ovarian = system: OVCAR-8 ovarian
XF 498 CNS = system: XF 498 CNS
DLD-1 colon = system: DLD-1 colon
DMS 273 small cell lung = system: DMS 273 small cell lung
UACC-62 melanoma = system: UACC-62 melanoma
SF-539 CNS = system: SF-539 CNS
LXFL 529 NSCLC = system: LXFL 529 NSCLC
DMS 114 small cell lung = system: DMS 114 small cell lung
DU-145 prostate = system: DU-145 prostate
SNB-78 CNS = system: SNB-78 CNS
MDA-MB-231 breast = system: MDA-MB-231 breast

Structure (SMILES)	TGI (MALME-3M melanoma) [µM]	TGI (KM20L2 colon) [µM]	TGI (NCI-H226 lung) [µM]	TGI (HOP-18 NSCLC) [µM]	TGI (SK-MEL-5 melanoma) [µM]	TGI (M19-MEL melanoma) [µM]	TGI (OVCAR-8 ovarian) [µM]	TGI (XF 498 CNS) [µM]	TGI (DLD-1 colon) [µM]	TGI (DMS 273 small cell lung) [µM]	TGI (UACC-62 melanoma) [µM]	TGI (SF-539 CNS) [µM]	TGI (LXFL 529 NSCLC) [µM]	TGI (DMS 114 small cell lung) [µM]	TGI (DU-145 prostate) [µM]	TGI (SNB-78 CNS) [µM]	TGI (MDA-MB-231 breast) [µM]
COc1ccc2c(c1)CCC(OS(=O)(=O)CC13CCC(CC1=O)C3(C)C)C2=O (configuration not stated)	> 100	37.8	65.2	78.2	39.2	> 100	38.6	93.9	> 100	58.4	34.8	41.6	> 100	73.3	–	–	–
NC(=O)c1cccc([C@@H]2O[C@H](CO)[C@@H](O)[C@H]2O)c1	> 100	> 94.1	75.7	68.6	53.2	60.7	9.55	7	35.9	22.9	60	6.28	–	32.7	> 50.6	24.4	> 100
CC(CCCOC(c1ccccc1)(c1ccccc1)c1ccccc1)OC(=O)Nc1ccccc1 (configuration not stated)	29.6	19.8	25.6	–	27.1	28.3	27.1	28.1	27.1	29.3	25.5	31.7	26	24.5	–	31.9	–
CC(=O)C1=CCC2c3[nH]c4ccccc4c3CCN2C1 (configuration not stated)	> 100	46.2	> 100	> 100	> 100	> 100	> 100	> 100	> 100	> 100	–	> 100	> 100	–	–	> 100	–
Cc1ccc(S(=O)(=O)c2c(N)n(CCN(C)C)c3nc4ccccc4nc23)cc1	> 100	–	> 100	> 100	> 100	> 100	> 100	> 100	> 100	> 100	–	> 100	> 100	> 100	–	> 100	–
CC(C)(C)S(=O)OC12CC3CC(CC(C3)C1)C2 (configuration not stated)	> 100	> 100	> 100	–	> 100	> 100	> 100	> 100	–	> 100	> 100	> 100	> 100	> 100	–	> 100	–
CC1OC(OC2C(Oc3cc(O)c4c(c3)O[C@H](c3ccc(O)cc3)CC4=O)OC(CO)C(O)C2O)C(O)C(O)C1O (some centres not stated)	> 100	–	> 100	–	> 100	–	> 100	–	–	–	> 100	> 100	–	–	> 100	–	> 100
O=C(CC1C(=O)c2ccccc2C1=C1C(=O)c2ccccc2C1=O)c1ccccc1 (configuration not stated)	> 100	> 100	> 100	> 100	> 100	> 100	> 100	> 100	> 100	> 100	> 100	> 100	> 100	> 100	–	> 100	–
Cc1cc(N(CCC#N)CCC#N)ccc1C=Nc1ccc(C(=O)NN2C(=O)/C(=C/c3ccc(N(CCC#N)CCC#N)cc3)N=C2c2cc([N+](=O)[O-])ccc2Cl)cc1	> 100	> 100	> 100	> 100	> 100	> 100	> 100	> 100	> 100	> 100	> 100	> 100	> 100	> 100	–	> 100	–
Cn1c2ccccc2c(=O)c2[nH]c3ccccc3c21	> 100	–	> 100	–	> 100	–	> 100	–	–	–	> 100	> 100	–	–	> 100	–	> 100
COC(=O)c1ccc(NCc2cc(O)ccc2O)cc1	15.7	> 72.7	24.9	27.4	23.7	33.7	40.1	9.63	40.8	> 54.8	27	13.5	17.9	8.04	24.8	52.1	–
COc1cc(C(=O)Oc2c(C#N)sc3c2c(=O)n(-c2ccccc2)c(=S)n3-c2ccccc2)cc(OC)c1OC	28	–	32.7	–	31.6	–	59.2	–	–	–	54.7	24.1	–	–	42.3	–	77.9
Cc1ncc([N+](=O)[O-])n1CCNC(=O)Cn1c([N+](=O)[O-])cnc1C	> 100	–	> 100	–	> 100	–	> 100	–	–	–	> 100	> 100	–	–	> 100	–	> 100
CN(C)Cc1cc(C(C)(C)C)cc(C2CCCCC2)c1O	17.9	–	31.2	–	27.4	–	26.4	–	–	–	29.8	22.8	–	–	27.8	–	26.7
N#Cc1c(N2CCOCC2)[nH]c(=O)c(C(c2c(Cl)cccc2Cl)c2c(O)c(C#N)c(N3CCOCC3)[nH]c2=O)c1O	26.8	–	37.5	–	35.4	–	34.1	–	–	–	30.2	34.9	–	–	69.2	–	30.4
C/C=C/[C@H](O[Si](C)(C)C(C)(C)C)[C@@H](O)/C=C/C(=O)OCC	28.4	–	83.7	–	32.2	–	34.6	–	–	–	38.8	52	–	–	> 100	–	66
C=C(C)C12CC3CC/C(=N/O)C(C1)C3(N1CCOCC1)C/C2=N/O (configuration not stated)	> 100	–	> 100	–	> 100	–	> 100	–	–	–	> 100	> 100	–	–	> 100	–	> 100
NCc1cc(O)c(O)c(O)c1	> 100	> 100	> 100	> 100	> 100	> 100	> 100	> 100	> 100	> 100	> 100	–	> 100	> 100	–	> 100	–
c1ccc(CC2(c3cc4ccccc4[nH]3)OCCO2)nc1	> 100	–	> 100	–	> 100	–	> 100	–	–	–	> 100	> 100	–	–	> 100	–	> 100
Cc1ccc(NC(=O)C(=O)Cc2cc[n+]([O-])cc2)cc1	> 100	> 100	> 100	> 100	> 100	> 100	> 100	> 100	> 100	> 100	> 100	> 100	> 100	> 100	–	> 100	–
O=C(NNC(=O)c1ccccc1O)c1ccc(O)cc1	> 100	–	> 100	–	> 100	–	> 100	–	–	–	> 100	> 100	–	–	> 100	–	69.7
COc1cc2c(cc1OC)C(=O)N(NC1=NCCN1)C2=O	> 100	–	> 100	–	> 100	–	> 100	–	–	–	> 100	> 100	–	–	> 100	–	> 100
C=CCN1CN(c2ccccc2)C2(CCN(CCCC3(c4ccc(F)cc4)OCCO3)CC2)C1=O	30.6	–	36.2	–	29.8	–	32.5	–	–	–	34.5	23.1	–	–	61.1	–	33.7
O=c1[nH]c2c(c(=O)[nH]1)SSC2	10.1	–	41.1	–	29.1	–	10.2	–	–	–	9.14	9.7	–	–	28.9	–	5.15
CC(=O)O[C@@H](C1C[C@@H](C)[C@H]2[C@@](O)(O1)[C@H](O)[C@@]1(C)C3=CC[C@H]4C(C)(C)[C@@H](OC5OCC(O)C(O)C5O)CC[C@@]45C[C@@]35CC[C@]21C)C(C)(C)O (some centres not stated)	51	–	45.9	–	32.7	–	> 100	–	–	–	40.3	30.3	–	–	70	–	37.2
O=C(CSC1=NNC2(C(=O)N1)c1ccccc1-c1ccccc12)NC(=S)Nc1ccccc1	> 10	–	> 10	–	> 10	–	> 10	–	–	–	> 10	> 10	–	–	> 10	–	> 10
Cc1cc(-c2nc3cccc(F)c3s2)ccc1N	> 100	–	> 100	–	> 100	–	> 100	–	–	–	> 100	> 100	–	–	> 100	–	> 100
CCOP(=O)(OCC)/C(C#N)=C/c1c[nH]c2ccccc12	> 100	–	> 100	–	> 100	–	> 100	–	–	–	> 100	> 100	–	–	> 100	–	> 100
CCC1CN2CCC3(c4ccccc4)CC(C(=O)OC)=CC1C23 (configuration not stated)	29.7	30.3	36.2	35.1	30.2	31.1	33.7	18.2	39	–	30.2	31.3	28.7	–	–	44	–

Reference: PubChem BioAssay (NCI)
